From ChEMBL document CHEMBL3044665, “Adzuki bean (Vigna angularis) responses to post-emergence herbicides” (Crop Prot, 2006)

Assays:
Format in all cases: organism-based
Vigna angularis [1] = test: Phytotoxicity in Vigna angularis (adzuki bean) assessed as shoot dry weight at 500 g ai/ha measured per 1 m row after 42 days applied as spray (reference value: 153 g); conditions: in vivo, other, 1008 h
Vigna angularis [2] = test: Phytotoxicity in Vigna angularis (adzuki bean) assessed as plant height at 500 g ai/ha after 28 days applied as spray (RVB = 34 cm); conditions: in vivo, other, 672 h
Vigna angularis [3] = test: Phytotoxicity in Vigna angularis (adzuki bean) assessed as visual injury at 1000 g ai/ha after 14 days applied as spray relative to untreated control; conditions: in vivo, other, 336 h
Vigna angularis [4] = test: Phytotoxicity in Vigna angularis (adzuki bean) assessed as plant height at 1000 g ai/ha after 28 days applied as spray (RVB = 34 cm); conditions: in vivo, other, 672 h
Vigna angularis [5] = test: Phytotoxicity in Vigna angularis (adzuki bean) assessed as crop yield at 1000 g ai/ha measured during post emergence applied as spray (reference value: 2.05 t/ha); conditions: in vivo, other
Vigna angularis [6] = test: Phytotoxicity in Vigna angularis (adzuki bean) assessed as visual injury at 500 g ai/ha after 7 days applied as spray relative to untreated control; conditions: in vivo, other, 168 h
Vigna angularis [7] = test: Phytotoxicity in Vigna angularis (adzuki bean) assessed as visual injury at 500 g ai/ha after 14 days applied as spray relative to untreated control; conditions: in vivo, other, 336 h
Vigna angularis [8] = test: Phytotoxicity in Vigna angularis (adzuki bean) assessed as shoot dry weight at 1000 g ai/ha measured per 1 m row after 42 days applied as spray (reference value: 153 g); conditions: in vivo, other, 1008 h
Vigna angularis [9] = test: Phytotoxicity in Vigna angularis (adzuki bean) assessed as visual injury at 1000 g ai/ha after 7 days applied as spray relative to untreated control; conditions: in vivo, other, 168 h
Vigna angularis [10] = test: Phytotoxicity in Vigna angularis (adzuki bean) assessed as crop yield at 500 g ai/ha measured during post emergence applied as spray (reference value: 2.05 t/ha); conditions: in vivo, other
Vigna angularis [11] = test: Phytotoxicity in Vigna angularis (adzuki bean) assessed as seed moisture content at 1000 g ai/ha after 42 days applied as spray (reference value: 13.9%); conditions: in vivo, other, 1008 h, at 1000 g/ha
Vigna angularis [12] = test: Phytotoxicity in Vigna angularis (adzuki bean) assessed as visual injury at 1000 g ai/ha after 28 days applied as spray relative to untreated control; conditions: in vivo, other, 672 h
Vigna angularis [13] = test: Phytotoxicity in Vigna angularis (adzuki bean) assessed as visual injury at 500 g ai/ha after 28 days applied as spray relative to untreated control; conditions: in vivo, other, 672 h
Vigna angularis [14] = test: Phytotoxicity in Vigna angularis (adzuki bean) assessed as seed moisture content at 500 g ai/ha after 42 days applied as spray (reference value: 13.9%); conditions: in vivo, other, 1008 h, at 500 g/ha
Vigna angularis [15] = test: Phytotoxicity in Vigna angularis (adzuki bean) assessed as visual injury at 480 g ai/ha after 7 days applied as spray relative to untreated control; conditions: in vivo, other, 168 h
Vigna angularis [16] = test: Phytotoxicity in Vigna angularis (adzuki bean) assessed as visual injury at 240 g ai/ha after 7 days applied as spray relative to untreated control; conditions: in vivo, other, 168 h
Vigna angularis [17] = test: Phytotoxicity in Vigna angularis (adzuki bean) assessed as crop yield at 480 g ai/ha measured during post emergence applied as spray (reference value: 2.05 t/ha); conditions: in vivo, other
Vigna angularis [18] = test: Phytotoxicity in Vigna angularis (adzuki bean) assessed as crop yield at 240 g ai/ha measured during post-emergence applied as spray (reference value: 2.05 t/ha); conditions: in vivo, other
Vigna angularis [19] = test: Phytotoxicity in Vigna angularis (adzuki bean) assessed as visual injury at 480 g ai/ha after 14 days applied as spray relative to untreated control; conditions: in vivo, other, 336 h
Vigna angularis [20] = test: Phytotoxicity in Vigna angularis (adzuki bean) assessed as visual injury at 240 g ai/ha after 28 days applied as spray relative to untreated control; conditions: in vivo, other, 672 h
Vigna angularis [21] = test: Phytotoxicity in Vigna angularis (adzuki bean) assessed as seed moisture content at 480 g ai/ha after 42 days applied as spray (reference value: 13.9%); conditions: in vivo, other, 1008 h, at 480 g/ha
Vigna angularis [22] = test: Phytotoxicity in Vigna angularis (adzuki bean) assessed as visual injury at 240 g ai/ha after 14 days applied as spray relative to untreated control; conditions: in vivo, other, 336 h
Vigna angularis [23] = test: Phytotoxicity in Vigna angularis (adzuki bean) assessed as plant height at 240 g ai/ha after 28 days applied as spray (RVB = 34 cm); conditions: in vivo, other, 672 h
Vigna angularis [24] = test: Phytotoxicity in Vigna angularis (adzuki bean) assessed as seed moisture content at 240 g ai/ha after 42 days applied as spray (reference value: 13.9%); conditions: in vivo, other, 1008 h, at 240 g/ha
Vigna angularis [25] = test: Phytotoxicity in Vigna angularis (adzuki bean) assessed as shoot dry weight at 240 g ai/ha measured per 1 m row after 42 days applied as spray (reference value: 153 g); conditions: in vivo, other, 1008 h
Vigna angularis [26] = test: Phytotoxicity in Vigna angularis (adzuki bean) assessed as visual injury at 480 g ai/ha after 28 days applied as spray relative to untreated control; conditions: in vivo, other, 672 h
Vigna angularis [27] = test: Phytotoxicity in Vigna angularis (adzuki bean) assessed as plant height at 480 g ai/ha after 28 days applied as spray (RVB = 34 cm); conditions: in vivo, other, 672 h
Vigna angularis [28] = test: Phytotoxicity in Vigna angularis (adzuki bean) assessed as decrease in shoot dry weight at 480 g ai/ha after 42 days applied as spray relative to untreated control; set-up: scale not given: the % may be the effect or the level left; conditions: in vivo, other, 1008 h

SMILES: CCC/C(=N\OCC)C1=C(O)CC(CC(C)SCC)CC1=O (stereo not drawn) [SETHOXYDIM]
- Activity (Vigna angularis [1]): 134 g
- Activity (Vigna angularis [2]): 33.1 cm
- Activity (Vigna angularis [3]): 3.6%
- Activity (Vigna angularis [4]): 32.8 cm
- Crop_yield (Vigna angularis [5]): 1.95 tons/ha
- Activity (Vigna angularis [6]): 3.7%
- Activity (Vigna angularis [7]): 1.6%
- Activity (Vigna angularis [8]): 142 g
- Activity (Vigna angularis [9]): 4.9%
- Crop_yield (Vigna angularis [10]): 2.04 tons/ha
- Activity (Vigna angularis [11]): 14.3%
- Activity (Vigna angularis [12]): 1.1%
- Activity (Vigna angularis [13]): 0.4%
- Activity (Vigna angularis [14]): 14.1%

SMILES: CS(=O)(=O)NC(=O)c1cc(Oc2ccc(C(F)(F)F)cc2Cl)ccc1[N+](=O)[O-] [FOMESAFEN]
- Activity (Vigna angularis [15]): 9.8%
- Activity (Vigna angularis [16]): 6.8%
- Crop_yield (Vigna angularis [17]): 1.81 tons/ha
- Crop_yield (Vigna angularis [18]): 1.88 tons/ha
- Activity (Vigna angularis [19]): 7.2%
- Activity (Vigna angularis [20]): 1.7%
- Activity (Vigna angularis [21]): 14.4%
- Activity (Vigna angularis [22]): 4.6%
- Activity (Vigna angularis [23]): 32.4 cm
- Activity (Vigna angularis [24]): 14.2%
- Activity (Vigna angularis [25]): 140 g
- Activity (Vigna angularis [26]): 2.6%
- Activity (Vigna angularis [27]): 31.3 cm
- Activity (Vigna angularis [28]): 16%
